Measurements from PubChem BioAssay AID200 (DTP/NCI, 2004).
Where “and” joins values, the source holds several entries; their conditions need not be identical. Equal entries are not always repeated. Inconclusive results and toxic doses are left out. Where a SMILES comes first, the peptide text is derived from it. The star is where a group is joined. Cbz = O=C(OCc1ccccc1)*; Bn = c1ccc(C*)cc1

Test system: B6C3F1 mice, B16 melanoma ip, median survival T/C
Assay: NCI In Vivo Anticancer Drug Screen. Data for tumor model B16 Melanoma (intraperitoneal) in B6C3F1 mice
Settings: endpoint: median survival time, higher = longer survival
Summary of the method: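 Readout: survival or tumor size in treated mice relative to vehicle controls (T/C). Model uses transplantable tumors grown in mice.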

[1] = dose: 12.5 mg/kg/injection, schedule: Q01DX009 (ip), vehicle: Klucel (hydroxypropylcellulose) (HPC)
[2] = dose: 25.0 mg/kg/injection, schedule: Q01DX009 (ip), vehicle: Klucel (hydroxypropylcellulose) (HPC)
[3] = dose: 50.0 mg/kg/injection, schedule: Q01DX009 (ip), vehicle: Klucel (hydroxypropylcellulose) (HPC)
[4] = dose: 100.0 mg/kg/injection, schedule: Q01DX009 (ip), vehicle: Klucel (hydroxypropylcellulose) (HPC)
[5] = dose: 50.0 mg/kg/injection, schedule: Q01DX009 (ip), vehicle: DMSO
[6] = dose: 100.0 mg/kg/injection, schedule: Q01DX009 (ip), vehicle: DMSO
[7] = dose: 200.0 mg/kg/injection, schedule: Q01DX009 (ip), vehicle: DMSO
[8] = dose: 25.0 mg/kg/injection, schedule: Q01DX009 (ip), vehicle: saline with Tween-80
[9] = dose: 50.0 mg/kg/injection, schedule: Q01DX009 (ip), vehicle: saline with Tween-80
[10] = dose: 100.0 mg/kg/injection, schedule: Q01DX009 (ip), vehicle: saline with Tween-80
[11] = dose: 6.25 mg/kg/injection, schedule: Q01DX009 (ip), vehicle: water
[12] = dose: 12.5 mg/kg/injection, schedule: Q01DX009 (ip), vehicle: water
[13] = dose: 25.0 mg/kg/injection, schedule: Q01DX009 (ip), vehicle: water
[14] = dose: 6.25 mg/kg/injection, schedule: Q01DX009 (ip), vehicle: saline with Tween-80
[15] = dose: 12.5 mg/kg/injection, schedule: Q01DX009 (ip), vehicle: saline with Tween-80
[16] = dose: 12.5 mg/kg/injection, schedule: Q01DX009 (ip), vehicle: distilled water + Tween-80
[17] = dose: 25.0 mg/kg/injection, schedule: Q01DX009 (ip), vehicle: distilled water + Tween-80
[18] = dose: 50.0 mg/kg/injection, schedule: Q01DX009 (ip), vehicle: distilled water + Tween-80
[19] = dose: 100.0 mg/kg/injection, schedule: Q01DX009 (ip), vehicle: distilled water + Tween-80
[20] = dose: 200.0 mg/kg/injection, schedule: Q01DX009 (ip), vehicle: distilled water + Tween-80
[21] = dose: 200.0 mg/kg/injection, schedule: Q01DX009 (ip), vehicle: saline with Tween-80
[22] = dose: 400.0 mg/kg/injection, schedule: Q01DX009 (ip), vehicle: distilled water + Tween-80
[23] = dose: 400.0 mg/kg/injection, schedule: Q01DX009 (ip), vehicle: saline with Tween-80
[24] = dose: 200.0 mg/kg/injection, schedule: Q01DX009 (ip), vehicle: Klucel (hydroxypropylcellulose) (HPC)
[25] = dose: 400.0 mg/kg/injection, schedule: Q01DX009 (ip), vehicle: Klucel (hydroxypropylcellulose) (HPC)

With `COc1ccc2c(c1OC(C)=O)-c1cc(OC(C)=O)cc3c1C(C2)N(C(=O)CN(CCCl)CCCl)CC3` (stereo not drawn) the T/C (dose: 1.56 mg/kg/injection, schedule: Q04DX003 (ip), vehicle: DMSO) was 120 % of control, the T/C (dose: 3.13 mg/kg/injection, schedule: Q04DX003 (ip), vehicle: DMSO) was 120 % of control and the T/C (dose: 6.25 mg/kg/injection, schedule: Q04DX003 (ip), vehicle: DMSO) was 159 % of control. For the same compound, the T/C (dose: 12.5 mg/kg/injection, schedule: Q04DX003 (ip), vehicle: DMSO) was 150 % of control, the T/C (dose: 25.0 mg/kg/injection, schedule: Q04DX003 (ip), vehicle: DMSO) was 150 % of control and the T/C (dose: 50.0 mg/kg/injection, schedule: Q04DX003 (ip), vehicle: DMSO) was 170 % of control.
With `Cc1cc(N/N=C/c2ccccn2)nc2ccccc12` the T/C (dose: 6.25 mg/kg/injection, schedule: Q01DX009 (ip), vehicle: Klucel (hydroxypropylcellulose) (HPC)) was 96 % of control, the T/C [1] was 94 % of control and 99 % of control and the T/C [2] was 97 % of control and 98 % of control. The T/C [3] was 93 % of control and 101 % of control and the T/C [4] was 103 % of control and 106 % of control.
With `CC1(C)CC23C4COC(=O)C2CCC1C3CC4=O` (stereo not drawn) the T/C (dose: 6.25 mg/kg/injection, schedule: Q01DX009 (ip), vehicle: DMSO) was 89 % of control, the T/C (dose: 12.5 mg/kg/injection, schedule: Q01DX009 (ip), vehicle: DMSO) was 90 % of control and the T/C (dose: 25.0 mg/kg/injection, schedule: Q01DX009 (ip), vehicle: DMSO) was 97 % of control. For the same compound, the T/C [5] was 99 % of control, the T/C [6] was 88 % of control and the T/C [7] was 96 % of control.
`COCCOC` was tested, and the T/C (dose: 100.0 mg/kg/injection, schedule: Q01DX009 (ip), vehicle: saline) was 98 % of control, the T/C (dose: 200.0 mg/kg/injection, schedule: Q01DX009 (ip), vehicle: saline) was 94 % of control and the T/C (dose: 400.0 mg/kg/injection, schedule: Q01DX009 (ip), vehicle: saline) was 96 % of control.
`O=C1C2CC(Cl)C(SSC3CC4C(=O)N(SC(Cl)(Cl)C(Cl)Cl)C(=O)C4CC3Cl)CC2C(=O)N1SC(Cl)(Cl)C(Cl)Cl` (stereo not drawn) was tested, and the T/C [8] was 98 % of control, the T/C [9] was 104 % of control and the T/C [10] was 98 % of control.
For `COc1ccc(OC)c(Cc2cnc3nc(N)nc(N)c3c2C)c1`, the T/C [11] was 106 % of control, the T/C [12] was 104 % of control and the T/C [13] was 99 % of control. For the same compound, the T/C (dose: 50.0 mg/kg/injection, schedule: Q01DX009 (ip), vehicle: water) was 93 % of control.
In the case of `COc1ccc(C(Cn2ccnc2)Sc2ccc(Cl)c(Cl)c2)cc1` (stereo not drawn), the T/C (dose: 3.12 mg/kg/injection, schedule: Q01DX009 (ip), vehicle: saline with Tween-80) is reported as 94 % of control, the T/C [14] is reported as 92 % of control and 96 % of control and 107 % of control and the T/C [15] is reported as 95 % of control and 96 % of control and 103 % of control. For the same compound, the T/C [8] was 95 % of control and 97 % of control and 100 % of control.
With `CC(=O)Oc1c[nH]c(=O)[nH]c1=O` the T/C [16] was 99 % of control, the T/C [15] was 97 % of control and the T/C [17] was 103 % of control. The T/C [8] was 98 % of control, the T/C [18] was 103 % of control and the T/C [9] was 98 % of control. The T/C [19] was 102 % of control, the T/C [10] was 90 % of control and the T/C [20] was 98 % of control. The T/C [21] was 95 % of control, the T/C [22] was 92 % of control and the T/C [23] was 98 % of control.
In the case of `NC(N)=NS(=O)(=O)c1ccc(NCc2c3ccccc3nc3ccccc23)cc1`, the T/C [2] is reported as 159 % of control, the T/C [3] is reported as 184 % of control and the T/C [4] is reported as 213 % of control. The T/C [24] was 238 % of control, the T/C [25] was 238 % of control and the T/C (dose: 800.0 mg/kg/injection, schedule: Q01DX009 (ip), vehicle: Klucel (hydroxypropylcellulose) (HPC)) was 250 % of control.
For `CCN(CC)CC(=O)c1ccc(O)c(O)c1`, the T/C [10] was 92 % of control, the T/C [21] was 107 % of control and the T/C [23] was 117 % of control.
`Oc1ccccc1C=NCCC[N-]CCCN=Cc1ccccc1O.[Co]` was tested, and the T/C (dose: 6.25 mg/kg/injection, schedule: Q01DX008 (ip), vehicle: saline) was 97 % of control, the T/C (dose: 6.25 mg/kg/injection, schedule: Q01DX009 (ip), vehicle: saline) was 101 % of control and the T/C (dose: 12.5 mg/kg/injection, schedule: Q01DX008 (ip), vehicle: saline) was 107 % of control. The T/C (dose: 12.5 mg/kg/injection, schedule: Q01DX009 (ip), vehicle: saline) was 107 % of control, the T/C (dose: 25.0 mg/kg/injection, schedule: Q01DX008 (ip), vehicle: saline) was 96 % of control and the T/C (dose: 25.0 mg/kg/injection, schedule: Q01DX009 (ip), vehicle: saline) was 113 % of control. For the same compound, the T/C (dose: 50.0 mg/kg/injection, schedule: Q01DX008 (ip), vehicle: saline) was 86 % of control, the T/C (dose: 50.0 mg/kg/injection, schedule: Q01DX009 (ip), vehicle: saline) was 105 % of control and the T/C (dose: 100.0 mg/kg/injection, schedule: Q01DX008 (ip), vehicle: saline) was 95 % of control.
In the case of `C=C1N(C)c2ccccc2C1(C)C`, the T/C [14] is reported as 110 % of control and the T/C [15] is reported as 108 % of control.
In the case of `COC(=O)[C@@]12OC[C@]34[C@H]([C@@H](O)[C@@H]1O)[C@@]1(C)CC(=O)C(OC(=O)CC(=O)OC5=C(C)[C@@H]6C[C@H]7OC(=O)[C@H](OC(=O)/C=C(\C)C(C)C)[C@H]8[C@]9(C(=O)OC)OC[C@]78[C@H]([C@@H](O)[C@@H]9O)[C@@]6(C)CC5=O)=C(C)[C@@H]1C[C@H]3OC(=O)[C@H](OC(=O)/C=C(\C)C(C)C)[C@@H]24`, the T/C (dose: 1.5 mg/kg/injection, schedule: Q01DX009 (ip), vehicle: saline + Tween-80 + alcohol) is reported as 154 % of control.
`COC(=O)Nc1ccc(Cc2ccc(NC(=O)OC)cc2)cc1` was tested, and the T/C [14] was 98 % of control, the T/C [15] was 99 % of control and the T/C [8] was 109 % of control and 98 % of control. For the same compound, the T/C [9] was 109 % of control and the T/C [10] was 150 % of control.
In the case of `O=C(O)CNC(=O)OCC1c2ccccc2-c2ccccc21`, the T/C [4] is reported as 93 % of control, the T/C [24] is reported as 87 % of control and the T/C [25] is reported as 86 % of control.
In the case of `C/C(=N\NC(=O)c1ccccc1O)c1cccc(/C(C)=N/NC(=O)c2ccccc2O)n1`, the T/C (dose: 3.0 mg/kg/injection, schedule: Q01DX009 (ip), vehicle: saline) is reported as 102 % of control and the T/C (dose: 6.0 mg/kg/injection, schedule: Q01DX009 (ip), vehicle: saline) is reported as 96 % of control.
In the case of `Cc1c(-c2ccc(-c3ccccc3F)cc2)nc2ccc(F)cc2c1C(=O)O`, the T/C [11] is reported as 118 % of control and 102 % of control, the T/C [12] is reported as 107 % of control and the T/C [13] is reported as 124 % of control.
`COc1cc(C(=O)c2cocc2C(=O)c2ccc3c(c2)OCO3)cc(OC)c1OC` was tested, and the T/C [3] was 92 % of control and 101 % of control, the T/C [4] was 113 % of control and 91 % of control and the T/C [24] was 112 % of control. The T/C [25] was 117 % of control.
For `Nc1ccc(S(=O)(=O)Nc2cnc3c(Cl)cccc3n2)cc1`, the T/C [5] was 97 % of control, the T/C [6] was 100 % of control and the T/C [7] was 116 % of control. For the same compound, the T/C (dose: 400.0 mg/kg/injection, schedule: Q01DX009 (ip), vehicle: DMSO) was 105 % of control.
In the case of `O=C(N[C@H](CO)[C@H](O)c1ccc([N+](=O)[O-])cc1)C(Cl)Cl`, the T/C [9] is reported as 117 % of control, the T/C [10] is reported as 103 % of control and the T/C [21] is reported as 109 % of control. The T/C [23] was 97 % of control and the T/C (dose: 800.0 mg/kg/injection, schedule: Q01DX009 (ip), vehicle: saline with Tween-80) was 100 % of control.
For `NC(=O)Oc1cccc(OC(N)=O)c1`, the T/C [16] was 108 % of control, the T/C [17] was 107 % of control and the T/C [18] was 99 % of control. The T/C [19] was 96 % of control, the T/C [20] was 113 % of control and the T/C [22] was 105 % of control.
In the case of `O=C1CN(CO)C(=O)N1CO`, the T/C [2] is reported as 93 % of control, the T/C [3] is reported as 97 % of control and the T/C [4] is reported as 110 % of control. For the same compound, the T/C [24] was 103 % of control.
`CC(C)CC(NC(=O)C(CSCc1ccccc1)NC(=O)OCc1ccccc1)C(N)=O` (stereo not drawn) (Cbz-Cys(Bn)-Leu-NH2; configuration not given here) was tested, and the T/C [1] was 107 % of control, the T/C [2] was 98 % of control and the T/C [3] was 100 % of control.
